Assay results as given in ChEMBL document CHEMBL2029199, “Pyrazole and pyrimidine phenylacylsulfonamides as dual Bcl-2/Bcl-xL antagonists” (Bioorg Med Chem Lett, 2012).
Calls of active or inactive are those of the source. The calls are words filed in the database; no cut-off is given here.

Key:
Bcl-2-like protein 1 = Bcl-2-like protein 1 (Homo sapiens, UniProt Q07817); experiment: Inhibition of biotin-labelled Bcl-xL using [FAM]-IWIAQELRRIGDEFNAYY-NH2 as substrate after 60 mins by FRET analysis
[1] = target: Apoptosis regulator Bcl-2 (Homo sapiens, UniProt P10415); experiment: Inhibition of GST-tagged Bcl2 using [FAM]-IWIAQELRRIGDEFNAYY-NH2 as substrate after 60 mins by fluorescence polarization assay
MV4-11 [2] = experiment: Cytotoxicity against human MV411 cells after 72 hrs by firefly luciferase-based assay in presence of 2% fetal calf serum; assay type: functional, cell-based; details: MV4-11, 72 h
[3] = Cytotoxicity against human SU-DHL4 cells after 72 hrs by firefly luciferase-based assay in presence of 2% fetal calf serum; assay type: functional, cell-based, SUD4; details: SU-DHL-4, 72 h
MV4-11 [4] = experiment: Induction of BAK oligomerization in mitochondria isolated from human MV411 cells at 0.1 uM after 40 mins by Western blotting analysis; assay type: functional
MV4-11 [5] = experiment: Induction of cytochrome C release in mitochondria isolated from human MV411 cells at 0.1 uM after 40 mins by Western blotting analysis; assay type: functional
MV4-11 [6] = experiment: Induction of cytochrome C release in mitochondria isolated from human MV411 cells after 40 mins by Western blotting analysis; assay type: functional
MV4-11 [7] = experiment: Induction of BAK oligomerization in mitochondria isolated from human MV411 cells after 40 mins by Western blotting analysis; assay type: functional
MV4-11 [8] = experiment: Cytotoxicity against human MV411 cells after 72 hrs by firefly luciferase-based assay in presence of 10% fetal calf serum; assay type: functional, cell-based; details: MV4-11, 72 h
MV4-11 [9] = experiment: Induction of mitochondria depolarization in human MV411 cells at 3 uM after 7 hrs by flow cytometry; assay type: functional
MV4-11 [10] = experiment: Induction of BAK oligomerization in mitochondria isolated from human MV411 cells at 1 uM after 40 mins by Western blotting analysis; assay type: functional

Bcl-2-like protein 1, sequence (Q07817 whole entry): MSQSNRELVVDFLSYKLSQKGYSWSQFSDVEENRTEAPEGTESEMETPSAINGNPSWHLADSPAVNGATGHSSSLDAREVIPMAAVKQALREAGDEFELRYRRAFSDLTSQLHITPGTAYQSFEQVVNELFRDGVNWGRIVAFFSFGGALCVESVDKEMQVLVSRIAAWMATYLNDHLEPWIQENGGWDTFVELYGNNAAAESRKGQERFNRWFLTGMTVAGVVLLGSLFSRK
Apoptosis regulator Bcl-2, sequence (P10415 whole entry): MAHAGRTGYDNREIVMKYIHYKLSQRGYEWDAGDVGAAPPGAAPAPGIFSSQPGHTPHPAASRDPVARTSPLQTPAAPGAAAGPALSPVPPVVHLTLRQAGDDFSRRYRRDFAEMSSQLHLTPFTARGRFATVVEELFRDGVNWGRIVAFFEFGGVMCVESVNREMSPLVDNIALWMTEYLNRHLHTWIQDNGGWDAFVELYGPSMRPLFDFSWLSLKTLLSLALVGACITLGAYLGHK

Structure (SMILES) | IC50 (Bcl-2-like protein 1) [nM] | IC50 [1] [nM] | also measured
CCCCc1c(-c2ccc(C(=O)NS(=O)(=O)CC)cc2C(=O)N2CCc3ccccc3C2)c(CO)nn1-c1ccc(Oc2cccc(Cl)c2)cc1 | 140 | 190 | –
CCCCc1c(-c2ccc(C(=O)NS(=O)(=O)c3ccc4ccccc4c3)cc2C(=O)N2Cc3ccccc3C[C@H]2CO)c(CO)nn1-c1ccccc1 | – | 11 | –
CCCCc1c(-c2ccc(C(=O)NS(=O)(=O)CC[Si](C)(C)C)cc2C(=O)N2CCc3ccccc3C2)c(CO)nn1-c1ccccc1 | – | 190 | –
CCOC(=O)c1nn(-c2ccccc2)c(C)c1-c1ccc(C(=O)NS(=O)(=O)c2ccc3ccccc3c2)cc1C(=O)N1CCc2ccccc2C1 | 640 | 4190 | –
CCCCN(CCCC)c1nccc(-c2ccc(C(=O)NS(=O)(=O)c3ccc4ccc(I)cc4c3)cc2C(=O)N2CCc3ccccc3C2)n1 | 970 | 140 | –
CCCCc1c(-c2ccc(C(=O)NS(=O)(=O)c3ccc4ccccc4c3)cc2C(=O)N2CCc3ccccc3C2)c(C(=O)OCC)nn1-c1cccc(Oc2ccccc2)c1 | 470 | 140 | –
CCCCCS(=O)(=O)NC(=O)c1ccc(-c2c(CO)nn(-c3ccc(Oc4cccc(Cl)c4)cc3)c2CCCC)c(C(=O)N2CCc3ccccc3C2)c1 | 120 | 65 | –
CCCCN(CCCC)c1ncc(Cl)c(-c2ccc(C(=O)NS(=O)(=O)c3ccc4ccccc4c3)cc2C(=O)N2CCc3ccccc3C2)n1 | 230 | 160 | –
CCCCN(CCCC)c1nccc(-c2ccc(C(=O)NS(=O)(=O)c3ccc4cccc(Cl)c4c3)cc2C(=O)N2Cc3ccccc3C[C@H]2CO)n1 | 130 | 160 | –
CCCCN(CCCC)c1ncc(C)c(-c2ccc(C(=O)NS(=O)(=O)c3ccc4ccccc4c3)cc2C(=O)N2CCc3ccccc3C2)n1 | 120 | 110 | –
CCCCN(CCCC)c1nccc(-c2ccc(C(=O)NS(=O)(=O)c3ccc4ccccc4c3)cc2C(=O)N2CCc3ccccc3C2)n1 | 500 | 700 | –
CCCCN(CCCC)c1nccc(-c2ccc(C(=O)NS(=O)(=O)c3ccc4ccccc4c3)cc2C(=O)N2Cc3ccccc3C[C@H]2CN)n1 | 160 | 430 | –
CCCN(CCC)c1nccc(-c2ccc(C(=O)NS(=O)(=O)c3ccc4ccccc4c3)cc2C(=O)N2CCc3ccccc3C2)n1 | 250 | 150 | Activity (MV4-11 [10]): inactive
CCCCN(CCCC)c1nccc(-c2ccc(C(=O)NS(=O)(=O)c3ccc4c(c3)CCN4Cc3ccc(Cl)c(Cl)c3)cc2C(=O)N2CCc3ccccc3C2)n1 | 710 | 120 | –
CCCCN(CCCC)c1nccc(-c2ccc(C(=O)NS(=O)(=O)c3ccc4cccc(Cl)c4c3)cc2C(=O)N2CCc3ccccc3C2)n1 | 480 | 120 | –

Further compounds by falling IC50 (Bcl-2-like protein 1), results first:

IC50 (Bcl-2-like protein 1) [nM] | IC50 [1] [nM] | Structure (SMILES) | also measured
55 | – | CCCCc1c(-c2ccc(C(=O)NS(=O)(=O)c3ccc4ccccc4c3)cc2C(=O)N2CCc3ccccc3C2)c(C(=O)OCC)nn1-c1ccc(Oc2ccccc2)cc1 | –
48 | 1790 | CCCCc1c(-c2ccc(C(=O)NS(=O)(=O)c3ccc4ccccc4c3)cc2C(=O)N2CCc3ccccc3C2)c(C(=O)OCC)nn1-c1ccc(OC)cc1 | –
42 | 660 | CCCCc1c(-c2ccc(C(=O)NS(=O)(=O)c3ccc4ccccc4c3)cc2C(=O)N2CCc3ccccc3C2)c(C(=O)OCC)nn1-c1ccccc1 | –
35 | 22 | CCCCc1c(-c2ccc(C(=O)NS(=O)(=O)c3ccc4ccccc4c3)cc2C(=O)N2CCc3ccccc3C2)c(CO)nn1-c1ccc(Oc2ccc(Cl)cc2)cc1 | –
35 | – | CCCCc1c(-c2ccc(C(=O)NS(=O)(=O)c3ccc4ccccc4c3)cc2C(=O)N2CCc3ccccc3C2)c(CO)nn1-c1ccc(Oc2ccccc2)cc1 | –
30 | 170 | CCCCc1c(-c2ccc(C(=O)NS(=O)(=O)c3ccc4ccccc4c3)cc2C(=O)N2CCc3ccccc3C2)c(C(=O)O)nn1-c1ccccc1 | –
26 | 45 | CCCCOc1ccc(-n2nc(CO)c(-c3ccc(C(=O)NS(=O)(=O)c4ccc5ccccc5c4)cc3C(=O)N3CCc4ccccc4C3)c2CCCC)cc1 | IC50 (MV4-11 [2]): 1430 nM; IC50 [3]: 2490 nM
18 | 8 | CCCCc1c(-c2ccc(C(=O)NS(=O)(=O)c3ccc4ccccc4c3)cc2C(=O)N2CCc3ccccc3C2)c(CO)nn1-c1ccc(Oc2cccc(Cl)c2)cc1 | IC50 (MV4-11 [2]): 700 nM; IC50 [3]: 2350 nM; Activity (MV4-11 [4]): Active; Activity (MV4-11 [9]): 25%; Activity (MV4-11 [5]): Active
15 | 71 | CCCCc1c(-c2ccc(C(=O)NS(=O)(=O)c3ccc4ccccc4c3)cc2C(=O)N2CCc3ccccc3C2)c(CO)nn1-c1cccc(CO)c1 | IC50 (MV4-11 [2]): 5060 nM; IC50 [3]: > 10000 nM; Activity (MV4-11 [4]): Active; Activity (MV4-11 [5]): Active
15 | 6 | CCCCc1c(-c2ccc(C(=O)NS(=O)(=O)c3ccc4cccc(Cl)c4c3)cc2C(=O)N2CCc3ccccc3C2)c(CO)nn1-c1ccc(Oc2cccc(Cl)c2)cc1 | IC50 (MV4-11 [2]): 580 nM; IC50 [3]: 2020 nM
14 | 15 | CCCN(CCC)c1ncc(Cl)c(-c2ccc(C(=O)NS(=O)(=O)c3ccc4cccc(Cl)c4c3)cc2C(=O)N2Cc3ccccc3C[C@H]2CN)n1 | Activity (MV4-11 [6]): Dose-dependent effect; IC50 (MV4-11 [2]): 330 nM; IC50 [3]: 6640 nM; Activity (MV4-11 [7]): Dose-dependent effect; IC50 (MV4-11 [8]): 730 nM; Activity (MV4-11 [9]): 25%
13 | 7 | CCCCc1c(-c2ccc(C(=O)NS(=O)(=O)c3ccc4ccccc4c3)cc2C(=O)N2CCc3ccccc3C2)c(CO)nn1-c1ccc(-c2ccccc2)cc1 | –
11 | 61 | CCCCc1c(-c2ccc(C(=O)NS(=O)(=O)c3ccc4ccccc4c3)cc2C(=O)N2CCc3ccccc3C2)c(CO)nn1-c1ccccc1 | –
9 | 9 | CCCN(CCC)c1ncc(Cl)c(-c2ccc(C(=O)NS(=O)(=O)c3ccc4cccc(Cl)c4c3)cc2C(=O)N2Cc3ccccc3C[C@H]2CO)n1 | Activity (MV4-11 [6]): Dose-dependent effect; IC50 (MV4-11 [2]): 330 nM; IC50 [3]: 3790 nM; Activity (MV4-11 [7]): Dose-dependent effect; Activity (MV4-11 [9]): 25%
7 | 24 | CCCCc1c(-c2ccc(C(=O)NS(=O)(=O)c3ccc4ccccc4c3)cc2C(=O)N2Cc3ccccc3C[C@H]2CN)c(CO)nn1-c1ccccc1 | –
7 | 14 | CCCCc1c(-c2ccc(C(=O)NS(=O)(=O)c3ccc4ccccc4c3)cc2C(=O)N2CCc3ccccc3C2)c(CO)nn1-c1ccc(CCCO)cc1 | –
6 | – | CCCCc1c(-c2ccc(C(=O)NS(=O)(=O)c3ccc4ccccc4c3)cc2C(=O)N2CCc3ccccc3C2)c(CO)nn1-c1ccc(CCO)cc1 | –
